Experimental data reported in PMC8610590 (Journal of Virology, 2021).
pIC50: −log10 of the molar value. Like-named read-outs stand apart in the source and are kept apart here.

Columns and labels:
[1] = tested on: SARS-CoV-2; assay type: cell-based
[2] = tested on: pseudotyped lentiviral particles expressing Spike glycoprotein of SARS-CoV-2; test: microbe, parasite or virus in culture; assay type: cell-based
[3] = tested on: SARS-CoV-2 isolate USA-WI1/2020; test: microbe, parasite or virus in culture; assay type: cell-based
[4] = target: ACE2: SARS-CoV-2 Spike RBD (UniProt P0DTC2+Q9BYF1); test: ACE2: SARS-CoV-2 Spike RBD inhibitor screening assay; assay type: binding, human ACE2 / SARS-CoV-2
[5] = tested on: SARS-CoV-2 isolate USA-WI1/2020; test: Antiviral activity against live SARS-CoV-2 in UNCN1T cells; assay type: cell-based; conditions: for antiviral efficacy against live SARS-CoV-2 (in words): UNCN1T cells, compared to DMSO vehicle control, data not shown
[6] = MTT cell viability assay, Vero-STAT1 knockout; assay type: cell-based; conditions: African green monkey
[7] = tested on: SARS-CoV-2 isolate USA-WI1/2020; assay type: cell-based
[8] = Severe acute respiratory syndrome coronavirus 2, read-out: IC50, inhibition of SARS-CoV-2 replication
[9] = read-out: IC50, inhibition of SARS-CoV-2 replication

Row | SMILES | SARS-CoV-2 infection compared with vehicle controls (in words) [1] | pseudotype viral entry inhibition (in words) [2] | pIC50 [4] | CC50 at 72 h [6] | antiviral efficacy against live SARS-CoV-2 (in words) [5] | further results
1 | CN1C(=O)c2ccccc2[S+]([O-])c2cc([N+](=O)[O-])ccc2S1(=O)=O (stereo not drawn) [MU-UNMC-1, 6-methyl-2-nitrodibenzo[d,g][1,6,2]dithiazocin-7(6H)-one 5,5,12-trioxide] | no significant difference | low level of viral entry inhibition with a slight increase at higher concentrations | > 6.60 | 6.21 µM |  | pIC50 [3, 8]: 5.27; pIC50 [3, 9]: 5.53; pIC50 [5, 8]: 6.17; pIC50 [5, 9]: 5.94
2 | OC(CNCCNc1ncccc1C(F)(F)F)Cn1ccc2ccccc21 (stereo not drawn) [MU-UNMC-7, 1-(1H-indol-1-yl)-3-((2-((3-(trifluoromethyl)pyridin-2-yl)amino)ethyl)amino)propan-2-ol] |  | failed to prevent the pseudovirus entry | < 5.30 |  | did not see any reduction in viral replication kinetics | 
3 | O=C1Nc2cc(C(F)(F)F)ccc2Oc2ccsc21 [MU-UNMC-2, 7-(trifluoromethyl) benzo[b]thieno[2,3-f][1,4]oxazepin-10(9H)-one] | no significant difference | significant and robust viral entry inhibition across a broad concentration range |  | 7.13 µM |  | pIC50 ([2]; Severe acute respiratory syndrome coronavirus 2, 48 h, read-out: IC50, inhibition of entry of pseudotyped lentiviral particles): 6.08; reduction in dosages in combination ([7]; RDV/MU-UNMC-2 combination, human bronchial epithelial cell line): 28.3 fold
4 | CCn1c(SCC(=O)N2CCCc3ccccc32)nnc1-c1cccs1 [MU-UNMC-6, 1-(3,4-dihydroquinolin-1(2H)-yl)-2-((4-ethyl-5-(thiophen-2-yl)-4H-1,2,4-triazol-3-yl)thio) ethanone] |  | failed to prevent the pseudovirus entry | 5.72 |  | did not see any reduction in viral replication kinetics | 
5 | CN(C)/C=C1\N=C(c2cccnc2Oc2ccc(Cl)cc2)OC1=O [MU-UNMC-8, (Z)-2-(2-(4-chlorophenoxy)pyridin-3-yl)-4-((dimethylamino)methylene)oxazol-5(4H)-one] |  | failed to prevent the pseudovirus entry | < 5.30 |  | did not see any reduction in viral replication kinetics | 
6 | CCC(CC)COC(=O)[C@H](C)N[P@](=O)(OC[C@H]1O[C@@](C#N)(c2ccc3c(N)ncnn23)[C@H](O)[C@@H]1O)Oc1ccccc1 [RDV, remdesivir] |  |  |  |  |  | reduction in dosages in combination [7]: 2.3 fold; dose reduction index (DRI) ([7]; RDV/MU-UNMC-2 combination, UNCN1T cells, CompuSyn): 2.33
